We go through seven compounds from ChEMBL document CHEMBL2429826, “Design, synthesis, and evaluation of prodrugs of ertapenem” (ACS Med Chem Lett, 2013).

Series [1] can be described thus: Apparent permeability of the compound in pig LLC-PK1 cells.
Series [2] can be described thus: Metabolic stability in dog plasma assessed as compound remaining at 50 uM after 60 mins by LC-MS/MS analysis. The format is ADME, cell-free, Canis lupus familiaris. The note with it: read-out: Stability.
Series [3] has as its system Canis familiaris. In words: AUC (0 to 8 hrs) in Beagle dog assessed as (4R,5S,6S)-3-((3S,5S)-5-(3-(ethoxycarbonyl)phenylcarbamoyl)pyrrolidin-3-ylthio)-6-((R)-1-hydroxyethyl)-4-methyl-7-oxo-1-azabicyclo[3.2.0]hept-2-ene-2-carboxylic acid at 10 mg/kg, ID administered as infusion. Format: ADME, organism-based, Canis lupus familiaris, Plasma. Details: time < 8 hr, dose 10 mg/kg, route intraduodenal; call rule not given here. To be noted: in vivo, other.

Series [4] in a line: Metabolic stability in rat plasma assessed as compound remaining at 50 uM after 60 mins by LC-MS/MS analysis. Format: ADME, cell-free. To be noted: read-out: Stability.
Series [5] relates to Canis familiaris. In words: AUC (0 to 8 hrs) in Beagle dog assessed as ertapenem at 10 mg/kg, ID administered as infusion. The format is ADME, organism-based, Canis lupus familiaris, Plasma. The note with it: in vivo, other. Details: time < 8 hr, dose 10 mg/kg, route intraduodenal.
Series [6] concerns Canis familiaris. In words: Bioavailability in Beagle dog assessed as ertapenem at 10 mg/kg, ID administered as infusion. Format: ADME, organism-based, Canis lupus familiaris. To be noted: in vivo, other.
Series [7] has as its system Rattus norvegicus. Briefly: AUC (0 to 8 hrs) in Sprague-Dawley rat assessed as ertapenem at 10 mg/kg, ID administered as infusion. The format is ADME, organism-based, Plasma. Set-up: time < 8 hr, dose 10 mg/kg, route intraduodenal. The note with it: in vivo, other.
The subject of series [8] is Rattus norvegicus. In words: Bioavailability in Sprague-Dawley rat assessed as ertapenem at 10 mg/kg, ID administered as infusion. Format: ADME, organism-based. The note with it: in vivo, other.
Series [9] can be described thus: Metabolic stability in human plasma assessed as compound remaining at 50 uM after 60 mins by LC-MS/MS analysis. The format is ADME, cell-free. To be noted: read-out: Stability.
Series [10] has as its system Rattus norvegicus. Briefly: AUC (0 to 8 hrs) in Sprague-Dawley rat assessed as (4R,5S,6S)-3-((3S,5S)-5-(3-(ethoxycarbonyl)phenylcarbamoyl)pyrrolidin-3-ylthio)-6-((R)-1-hydroxyethyl)-4-methyl-7-oxo-1-azabicyclo[3.2.0]hept-2-ene-2-carboxylic acid at 10 mg/kg, ID administered as infusion. Format: ADME, organism-based, Plasma. To be noted: in vivo, other, BLD = below limit of detection. Details: time < 8 hr, dose 10 mg/kg, route intraduodenal.

Series [11] has as its system Canis familiaris. In words: AUC (0 to 8 hrs) in Beagle dog assessed as 3-((2S,4S)-4-((4R,5S,6S)-2-(ethoxycarbonyl)-6-((R)-1-hydroxyethyl)-4-methyl-7-oxo-1-azabicyclo[3.2.0]hept-2-en-3-ylthio)pyrrolidine-2-carboxamido)benzoic acid at 10 mg/kg, ID administered as infusion. The note with it: in vivo, other. The format is ADME, organism-based, Canis lupus familiaris, Plasma. Set-up: time < 8 hr, dose 10 mg/kg, route intraduodenal.

The subject of series [12] is Rattus norvegicus. Briefly: AUC (0 to 8 hrs) in Sprague-Dawley rat assessed as 3-((2S,4S)-4-((4R,5S,6S)-2-(ethoxycarbonyl)-6-((R)-1-hydroxyethyl)-4-methyl-7-oxo-1-azabicyclo[3.2.0]hept-2-en-3-ylthio)pyrrolidine-2-carboxamido)benzoic acid at 10 mg/kg, ID administered as infusion. Format: ADME, organism-based, Plasma. Set-up: time < 8 hr, dose 10 mg/kg, route intraduodenal. The note with it: in vivo, other, BLD = below limit of detection.

Series [13] is described as follows: Metabolic stability in monkey plasma assessed as compound remaining at 50 uM after 60 mins by LC-MS/MS analysis. The format is ADME, cell-free, Macaca mulatta. To be noted: rhesus monkey, read-out: Stability.
Series [14] can be described thus: Drug metabolism in dog liver microsomes assessed as tebipenem level after 15 mins. The format is ADME, Canis lupus familiaris, Microsome. The note with it: 0.25 h.
The test system of series [15] is Liver microsomes. In words: Drug metabolism in human liver microsomes assessed as tebipenem level after 15 mins. The format is ADME, Microsome. The note with it: 0.25 h. On the technique in general: Liver microsomes are a subcellular fraction often used to study metabolism.
The nature of series [16]: Drug metabolism in dog hepatocytes assessed as tebipenem level after 15 mins. The format is ADME, cell-based, Canis lupus familiaris, Hepatocyte. To be noted: 0.25 h.
Series [17] has as its system Liver microsomes. Briefly: Drug metabolism in rat liver microsomes assessed as tebipenem level after 15 mins. To be noted: 0.25 h. Format: ADME, Microsome.
Series [18] relates to Hepatocyte. Briefly: Drug metabolism in rat hepatocytes assessed as tebipenem level after 15 mins. Format: ADME, cell-based. The note with it: 0.25 h.
Series [19] deals with Hepatocyte. In words: Drug metabolism in human hepatocytes assessed as tebipenem level after 15 mins. The format is ADME, cell-based. The note with it: 0.25 h.
Series [20] is described as follows: Drug metabolism in monkey liver microsomes assessed as tebipenem level after 15 mins. Format: ADME, Macaca mulatta, Microsome. The note with it: rhesus monkey, 0.25 h.
A short description of series [21]: Drug metabolism in monkey hepatocytes assessed as tebipenem level after 15 mins. To be noted: rhesus monkey, 0.25 h. Format: ADME, cell-based, Macaca mulatta, Hepatocyte.
Series [22] is described as follows: AUC (0 to 8 hrs) in Sprague-Dawley rat at 1 mg/kg, iv. Format: ADME, organism-based. Set-up: time < 8 hr, dose 1 mg/kg, route intravenous. The note with it: plasma.
A short description of series [23]: AUC (0 to 8 hrs) in Beagle dog at 1 mg/kg, iv. The format is ADME, organism-based, Canis lupus familiaris. Set-up: time < 8 hr, dose 1 mg/kg, route intravenous. To be noted: plasma.
Series [24] can be described thus: AUC (0 to 8 hrs) in Sprague-Dawley rat at 10 mg/kg, ID administered as infusion. Format: ADME, organism-based. Details: time < 8 hr, dose 10 mg/kg, route intraduodenal. The note with it: plasma.
A short description of series [25]: Oral bioavailability in Sprague-Dawley rat at 10 mg/kg. Format: ADME, organism-based. To be noted: in vivo.
Series [26] is described as follows: AUC (0 to 8 hrs) in Sprague-Dawley rat at 10 mg/kg, po. Format: ADME, organism-based. Details: time < 8 hr, dose 10 mg/kg, route oral. To be noted: plasma.
The test system of series [27] is Rattus norvegicus. Briefly: AUC (0 to 8 hrs) in Sprague-Dawley rat assessed as ertapenem at 4.4 mg/kg, ID administered as infusion. To be noted: in vivo, other. Set-up: time < 8 hr, dose 4.4 mg/kg, route intraduodenal. Format: ADME, organism-based, Plasma.
Series [28] has as its system Rattus norvegicus. Briefly: AUC (0 to 8 hrs) in Sprague-Dawley rat assessed as (4R,5S,6S)-3-((3S,5S)-5-(3-(ethoxycarbonyl)phenylcarbamoyl)pyrrolidin-3-ylthio)-6-((R)-1-hydroxyethyl)-4-methyl-7-oxo-1-azabicyclo[3.2.0]hept-2-ene-2-carboxylic acid at 4.4 mg/kg, ID administered as infusion. The format is ADME, organism-based, Plasma. Set-up: time < 8 hr, dose 4.4 mg/kg, route intraduodenal. The note with it: in vivo, other.

The test system of series [29] is Rattus norvegicus. Briefly: AUC (0 to 8 hrs) in Sprague-Dawley rat assessed as 3-((2S,4S)-4-((4R,5S,6S)-2-(ethoxycarbonyl)-6-((R)-1-hydroxyethyl)-4-methyl-7-oxo-1-azabicyclo[3.2.0]hept-2-en-3-ylthio)pyrrolidine-2-carboxamido)benzoic acid at 4.4 mg/kg, ID administered as infusion. Details: time < 8 hr, dose 4.4 mg/kg, route intraduodenal. The note with it: in vivo, other. Format: ADME, organism-based, Plasma.

Series [30] has as its system Rattus norvegicus. In words: Bioavailability in Sprague-Dawley rat assessed as ertapenem at 4.4 mg/kg, ID administered as infusion. Format: ADME, organism-based. To be noted: in vivo, other.

In general, Papp refers to the rate of passage across a membrane or cell layer, normalised by area and donor concentration. For the compound `C[C@@H](O)[C@H]1C(=O)N2C(C(=O)O)=C(SC3CN(C4=NCCS4)C3)[C@H](C)[C@H]12` [TEBIPENEM], the apparent permeability coefficient (Papp) in series [1] stood at 0.7 ×10⁻⁶ cm/s.

Usually AUC stands for concentration integrated over time. On to `C[C@@H](O)[C@H]1C(=O)N2C(C(=O)OCOC(=O)C(C)(C)C)=C(S[C@@H]3CN[C@H](C(=O)Nc4cccc(C(=O)OCOC(=O)C(C)(C)C)c4)C3)[C@H](C)[C@H]12`, for which the remaining at 1 h, 50 µM in series [2] was 37%; in series [4], 2%; in series [9] it was 36%. Besides, the AUC entry with Canis familiaris [3] (BLD = below limit of detection) was “BLD”; in the series with Canis familiaris [5], 1.81 µM·h; in the series on Rattus norvegicus [7], 0.2 µM·h; in the series on Rattus norvegicus [10], “BLD”; in the series on Canis familiaris [11], 0.04 µM·h; with Rattus norvegicus [12] it was “BLD”. Further, the F in the series with Canis familiaris [6] stood at 3%; in the series on Rattus norvegicus [8], 0.37%.

Turning to `C[C@@H](O)[C@H]1C(=O)N2C3=C(S[C@@H]4CN[C@@H](C4)C(=O)Nc4cccc(c4)C(=O)OCCCOC3=O)[C@H](C)[C@H]12`, the remaining at 1 h, 50 µM came out at 79% in series [2], 0% in [4], 49% in series [13] and 17% in series [9]. Also, in the series on Canis familiaris [5], the AUC is 0.44 µM·h. Further, the F in the series with Canis familiaris [6] was 0.53%.

Turning to `Cc1oc(=O)oc1COC(=O)C1=C(S[C@@H]2CN[C@H](C(=O)Nc3cccc(C(=O)OCc4oc(=O)oc4C)c3)C2)[C@H](C)[C@@H]2[C@@H]([C@@H](C)O)C(=O)N12`, the remaining at 1 h, 50 µM in series [2] was determined as 3%; in [4], 1%; in [13], 2%; in series [9] it was 1%. Moreover, in the series on Rattus norvegicus [7], the AUC came to 0.3 µM·h. The F in the series with Rattus norvegicus [8] was 0.77%.

Regarding `C[C@@H](O)[C@H]1C(=O)N2C(C(=O)OCOC(=O)C(C)(C)C)=C(SC3CN(C4=NCCS4)C3)[C@H](C)[C@H]12` [TEBIPENEM PIVOXIL], the remaining at 1 h, 50 µM in series [2] was determined as 25%; in series [4] it was 0%; in series [13] it was 0%; in series [9], 0%. Further, the Drug metabolism result (in series [14]; with Liver microsomes [15]; in [16]; with Liver microsomes [17]; in the series with Hepatocyte [18]; in the series with Hepatocyte [19]) was “Active” each time. The Drug metabolism entry in series [20] and in series [21] was “Active” throughout.

As usually defined, the AUC(0-t) is exposure summed from dosing to a finite time, without extrapolation to infinity. The bioavailability is the share of a dose that reaches the circulation, judged against a reference dose that is usually intravenous. On to `C[C@@H](O)[C@H]1C(=O)N2C(C(=O)O)=C(S[C@@H]3CN[C@H](C(=O)Nc4cccc(C(=O)O)c4)C3)[C@H](C)[C@H]12`, for which, in series [1], the Papp worked out at 0.5 ×10⁻⁶ cm/s. Besides, the AUC(0-t) at 8 h in series [22] worked out at 7.84 µM·h; in series [23], 8.9 µM·h; in [24], 0.48 µM·h; in series [26] it was 0.39 µM·h. The same compound yielded a bioavailability in [25] of 0.53%.

Take `CCOC(=O)C1=C(S[C@@H]2CN[C@H](C(=O)Nc3cccc(C(=O)OCC)c3)C2)[C@H](C)[C@@H]2[C@@H]([C@@H](C)O)C(=O)N12`: the AUC in the series on Rattus norvegicus [27] was found to be 1.54 µM·h; in the series with Canis familiaris [3] it was 3.34 µM·h; in the series with Canis familiaris [5], 14.3 µM·h; with Rattus norvegicus [28] it was 0.42 µM·h; in the series with Rattus norvegicus [29] it was 0.07 µM·h; in the series with Canis familiaris [11] it was 2.17 µM·h. Besides, the remaining at 1 h, 50 µM in series [2] is 75%; in series [4] it was 0%; in series [13], 77%; in [9], 5%. For the same compound, the Papp in series [1] came out at 13 ×10⁻⁶ cm/s. Moreover, the F in the series with Canis familiaris [6] worked out at 18.1%; in the series on Rattus norvegicus [30], 4.98%.
